In brackets after ≈: the same amount, converted by molar mass.
What was measured:
Format in all cases: functional
Plutella xylostella [1] = assay: Insecticidal activity against third-instar larval stage of Plutella xylostella (diamondback moth) in cabbage leaves assessed as mortality at 100 ug/ml treated for 10 secs before larva infestation measured after 2 days by dipping method; settings: 48 h
Plutella xylostella [2] = assay: Insecticidal activity against third-instar larval stage of Plutella xylostella (diamondback moth) in cabbage leaves assessed as mortality at 10 ug/ml treated for 10 secs before larva infestation measured after 3 days by dipping method; settings: 72 h
Plutella xylostella [3] = assay: Insecticidal activity against third-instar larval stage of Plutella xylostella (diamondback moth) in cabbage leaves assessed as mortality at 10 ug/ml treated for 10 secs before larva infestation measured after 2 days by dipping method; settings: 48 h
Plutella xylostella [4] = assay: Insecticidal activity against third-instar larval stage of Plutella xylostella (diamondback moth) in cabbage leaves assessed as mortality treated for 10 secs before larva infestation measured for 3 days by dipping method; settings: 72 h
Plutella xylostella [5] = assay: Insecticidal activity against third-instar larval stage of Plutella xylostella (diamondback moth) in cabbage leaves assessed as mortality at 0.5 ug/ml treated for 10 secs before larva infestation measured for 3 days by dipping method; settings: 72 h
Plutella xylostella [6] = assay: Insecticidal activity against third-instar larval stage of Plutella xylostella (diamondback moth) in cabbage leaves assessed as mortality at 1 ug/ml treated for 10 secs before larva infestation measured for 3 days by dipping method; settings: 72 h
Plutella xylostella [7] = assay: Insecticidal activity against third-instar larval stage of Plutella xylostella (diamondback moth) in cabbage leaves assessed as mortality at 5 ug/ml treated for 10 secs before larva infestation measured for 3 days by dipping method; settings: 72 h
Plutella xylostella [8] = assay: Insecticidal activity against third-instar larval stage of Plutella xylostella (diamondback moth) in cabbage leaves assessed as mortality at 0.1 ug/ml treated for 10 secs before larva infestation measured for 3 days by dipping method; settings: 72 h
Plutella xylostella [9] = assay: Insecticidal activity against third-instar larval stage of Plutella xylostella (diamondback moth) in cabbage leaves assessed as mortality at 100 ug/ml treated for 10 secs before larva infestation measured after 3 days by dipping method; settings: 72 h

Row | SMILES | mortality at 100 µg/mL (Plutella xylostella [1]) [%] | mortality at 10 µg/mL (Plutella xylostella [3]) [%] | mortality at 100 µg/mL (Plutella xylostella [9]) [%] | also measured
1 | CSCC(C)(C)NC(=O)c1c(I)cccc1C(=O)Nc1cccc(C(F)(F)F)c1 | 100 | 90 |  | mortality at 10 µg/mL (Plutella xylostella [2]): 100%
2 | CC(C)(CS(C)(=O)=O)NC(=O)c1c(I)cccc1C(=O)Nc1ccc(Cl)c(C(F)(F)F)c1 | 100 | 100 |  | LC50 (Plutella xylostella [4]): 0.98 µg/mL (≈ 1.63 µM); mortality at 0.5 µg/mL (Plutella xylostella [5]): 29%; mortality at 1 µg/mL (Plutella xylostella [6]): 52%; mortality at 5 µg/mL (Plutella xylostella [7]): 100%; mortality at 0.1 µg/mL (Plutella xylostella [8]): 4.8%
3 | CC(C)(C)NC(=O)c1c(I)cccc1C(=O)Nc1cccc(C(F)(F)F)c1 | 100 | 50 |  | mortality at 10 µg/mL (Plutella xylostella [2]): 100%
4 | COc1ccc(NC(=O)c2cccc(I)c2C(=O)NC(C)(C)C)cc1C(F)(F)F | 0 |  | 5 | 
5 | CC(C)(CS(C)(=O)=O)NC(=O)c1c(I)cccc1C(=O)Nc1cccc(C(F)(F)F)c1 | 100 | 95 |  | mortality at 10 µg/mL (Plutella xylostella [2]): 100%
6 | COCC(C)(C)NC(=O)c1c(I)cccc1C(=O)Nc1ccc(OC)c(C(F)(F)F)c1 | 0 |  | 0 | 
7 | CC(C)(CS(C)(=O)=O)NC(=O)c1c(I)cccc1C(=O)Nc1ccc(F)c(C(F)(F)F)c1 | 100 | 100 |  | mortality at 0.5 µg/mL (Plutella xylostella [5]): 5%; mortality at 1 µg/mL (Plutella xylostella [6]): 29%; mortality at 5 µg/mL (Plutella xylostella [7]): 100%; mortality at 0.1 µg/mL (Plutella xylostella [8]): 0%
8 | COCC(C)(C)NC(=O)c1c(I)cccc1C(=O)Nc1cc(F)cc(C(F)(F)F)c1 | 10 |  | 19 | 
9 | COc1ccc(C(F)(F)F)cc1NC(=O)c1cccc(I)c1C(=O)NC(C)(C)CS(C)(=O)=O | 0 |  | 0 | 
10 | CC(C)(C)NC(=O)c1c(I)cccc1C(=O)Nc1cc(C(F)(F)F)ccc1F | 57 |  | 62 | 
11 | CC(C)(C)NC(=O)c1c(I)cccc1C(=O)Nc1cc(F)cc(C(F)(F)F)c1 | 14 |  | 76 | 
12 | COc1ccc(C(F)(F)F)cc1NC(=O)c1cccc(I)c1C(=O)NC(C)(C)C | 0 |  | 0 | 
13 | COCC(C)(C)NC(=O)c1c(I)cccc1C(=O)Nc1cc(C(F)(F)F)cc(C(F)(F)F)c1 | 0 |  | 0 | 
14 | COCC(C)(C)NC(=O)c1c(I)cccc1C(=O)Nc1ccc(C#N)c(C(F)(F)F)c1 | 0 |  | 0 | 
15 | CC(C)(CS(C)(=O)=O)NC(=O)c1c(I)cccc1C(=O)Nc1cc(F)cc(C(F)(F)F)c1 | 100 | 57 |  | mortality at 10 µg/mL (Plutella xylostella [2]): 91%
16 | COCC(C)(C)NC(=O)c1c(I)cccc1C(=O)Nc1ccc(Cl)c(C(F)(F)F)c1 | 5 |  | 52 | 
17 | CC(C)(CS(C)(=O)=O)NC(=O)c1c(I)cccc1C(=O)Nc1cc(C(F)(F)F)ccc1F | 43 |  | 67 | 
18 | COc1ccc(NC(=O)c2cccc(I)c2C(=O)NC(C)(C)CSC)cc1C(F)(F)F | 5 |  | 50 | 

Row | SMILES | mortality at 100 µg/mL (Plutella xylostella [1]) [%] | mortality at 10 µg/mL (Plutella xylostella [3]) [%] | mortality at 100 µg/mL (Plutella xylostella [9]) [%] | also measured
19 | CSCC(C)(C)NC(=O)c1c(I)cccc1C(=O)Nc1cc(C(F)(F)F)ccc1F | 41 |  | 65 | 
20 | Cc1cc(C(F)(C(F)(F)F)C(F)(F)F)ccc1NC(=O)c1cccc(I)c1C(=O)NC(C)(C)CS(C)(=O)=O [FLUBENDIAMIDE] | 100 | 67 |  | LC50 (Plutella xylostella [4]): 0.15 µg/mL (≈ 0.22 µM); mortality at 0.5 µg/mL (Plutella xylostella [5]): 90%; mortality at 1 µg/mL (Plutella xylostella [6]): 95%; mortality at 5 µg/mL (Plutella xylostella [7]): 100%; mortality at 0.1 µg/mL (Plutella xylostella [8]): 20%; mortality at 10 µg/mL (Plutella xylostella [2]): 100%
21 | COCC(C)(C)NC(=O)c1c(I)cccc1C(=O)Nc1cc(C(F)(F)F)ccc1F | 6 |  | 12 | 
22 | COCC(C)(C)NC(=O)c1c(I)cccc1C(=O)Nc1cccc(C(F)(F)F)c1 | 60 | 0 | 100 | mortality at 10 µg/mL (Plutella xylostella [2]): 13%
23 | CSCC(C)(C)NC(=O)c1c(I)cccc1C(=O)Nc1cc(F)cc(C(F)(F)F)c1 | 90 | 43 | 100 | mortality at 10 µg/mL (Plutella xylostella [2]): 100%
24 | CC(C)(CS(C)(=O)=O)NC(=O)c1c(I)cccc1C(=O)Nc1ccc(C#N)c(C(F)(F)F)c1 | 57 | 0 | 100 | mortality at 10 µg/mL (Plutella xylostella [2]): 50%
25 | COc1cc(NC(=O)c2cccc(I)c2C(=O)NC(C)(C)C)cc(C(F)(F)F)c1 | 10 |  | 10 | 
26 | COc1ccc(NC(=O)c2cccc(I)c2C(=O)NC(C)(C)CS(C)(=O)=O)cc1C(F)(F)F | 0 |  | 0 | 
27 | CSCC(C)(C)NC(=O)c1c(I)cccc1C(=O)Nc1cc(C(F)(F)F)cc(C(F)(F)F)c1 | 71 |  | 85 | 
28 | CSCC(C)(C)NC(=O)c1c(I)cccc1C(=O)Nc1ccc(C#N)c(C(F)(F)F)c1 | 100 | 6 |  | mortality at 10 µg/mL (Plutella xylostella [2]): 42%
29 | COc1cc(NC(=O)c2cccc(I)c2C(=O)NC(C)(C)CSC)cc(C(F)(F)F)c1 | 0 |  | 5 | 
30 | CC(C)(C)NC(=O)c1c(I)cccc1C(=O)Nc1ccc(Cl)c(C(F)(F)F)c1 | 85 | 20 | 100 | mortality at 10 µg/mL (Plutella xylostella [2]): 70%
31 | CSCC(C)(C)NC(=O)c1c(I)cccc1C(=O)Nc1ccc(Cl)c(C(F)(F)F)c1 | 100 | 100 |  | LC50 (Plutella xylostella [4]): 0.42 µg/mL (≈ 0.736 µM); mortality at 0.5 µg/mL (Plutella xylostella [5]): 57%; mortality at 1 µg/mL (Plutella xylostella [6]): 62%; mortality at 5 µg/mL (Plutella xylostella [7]): 100%; mortality at 0.1 µg/mL (Plutella xylostella [8]): 0%
32 | CSCC(C)(C)NC(=O)c1c(I)cccc1C(=O)Nc1ccc(F)c(C(F)(F)F)c1 | 100 | 100 |  | mortality at 0.5 µg/mL (Plutella xylostella [5]): 0%; mortality at 1 µg/mL (Plutella xylostella [6]): 33%; mortality at 5 µg/mL (Plutella xylostella [7]): 100%; mortality at 0.1 µg/mL (Plutella xylostella [8]): 0%
33 | COc1ccc(C(F)(F)F)cc1NC(=O)c1cccc(I)c1C(=O)NC(C)(C)CSC | 5 |  | 5 | 
34 | CC(C)(CS(C)(=O)=O)NC(=O)c1c(I)cccc1C(=O)Nc1cc(C(F)(F)F)cc(C(F)(F)F)c1 | 40 |  | 90 | 
35 | COCC(C)(C)NC(=O)c1c(I)cccc1C(=O)Nc1cc(C(F)(F)F)ccc1OC | 0 |  | 0 | 
36 | COc1cc(NC(=O)c2cccc(I)c2C(=O)NC(C)(C)CS(C)(=O)=O)cc(C(F)(F)F)c1 | 0 |  | 0 | 

Source: ChEMBL document CHEMBL3045090, “Synthesis, insecticidal activity, and structure-activity relationship of trifluoromethyl-containing phthalic acid diamide structures” (2010)
